The target of assay [1] is T1, human serotonin 5-HT2c receptor (Homo sapiens, UniProt P28335).
T1 construct: expressed in transfected cells; host or cells: CHO cells (membrane homogenates)
T1 sequence (P28335 33-458): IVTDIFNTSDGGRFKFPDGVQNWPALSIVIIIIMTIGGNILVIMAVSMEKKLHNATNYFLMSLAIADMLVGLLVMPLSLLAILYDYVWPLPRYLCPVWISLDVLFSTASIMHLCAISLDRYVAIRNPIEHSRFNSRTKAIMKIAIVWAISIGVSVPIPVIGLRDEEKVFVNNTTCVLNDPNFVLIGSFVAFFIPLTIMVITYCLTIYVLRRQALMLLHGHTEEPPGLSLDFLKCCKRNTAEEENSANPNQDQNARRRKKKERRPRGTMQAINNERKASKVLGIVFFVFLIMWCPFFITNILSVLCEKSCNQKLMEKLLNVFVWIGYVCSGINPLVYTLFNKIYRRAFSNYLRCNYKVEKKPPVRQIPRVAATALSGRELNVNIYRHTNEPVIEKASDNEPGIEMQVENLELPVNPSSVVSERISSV
Description: Human 5-HT2C receptor radioligand binding assay (agonist site, [125I]DOI). The following applies: 5-HT2c agonist site; transfected CHO cell membranes; 0.2 nM [125I](±)DOI. The procedure: (i) Human 5-HT2C Receptor Radioligand Binding Assay
Affinity of compounds for the agonist site of the […], receptor in transfected CHO cells was determined in a radioligand binding assay essentially as described by Bryant, H. U., et al., Life Sciences (1996) 59(15), 1259-1268.

The next assay has as its target T2, 5HT2B receptors (Homo sapiens, UniProt P41595).
T2 construct: expressed in transfected cells; host or cells: CHO-K1 cells
Description: Human 5-HT2B functional high throughput screening assay in CHO-K1 cells (calcium flux). The assay is classed as cell-based. The following applies: for EC50: CHO-K1 cells, calcium flux. An outline of the steps: (§1)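 CHO-K1 cells overexpressing human 5-HT2C or 5-HT2B were serum-starved overnight and loaded with Ca4 dye plus 2.5 mM probenecid for 60 min at RT. Calcium flux was read on FLIPR (ex 480/em 530 nm, 25° C) over 3 min after addition of compound, tested from 10 μM in 1:10 steps over 6 points with 0.2% DMSO. EC50 and Emax relative to serotonin came from a 4-parameter logistic fit.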
In general terms: A change in cytosolic calcium serves as a functional read-out for many receptors and channels.

In assay [2] the target is T3, 5HT2C receptors (Homo sapiens, UniProt P28335).
T3 sequence (P28335 33-458): T1 sequence (P28335 33-458)
Description: Human 5-HT2C functional assay in 1321N1 cells (intracellular calcium, FLIPR). The format is cell-based. On the set-up: expressed in transfected cells; host or cells: 1321N1 cells. The following applies: 5-HT2c agonist activity, maximum calcium response. The procedure: (ii) Human 5-HT2C Functional Assay in 1321N1 Cells
Functional activity was determined by testing the effect of the compounds on intracellular calcium levels in 1321N1 cells stably transfected with the human 5-HT2C receptor. Cells were seeded into 96-well plates at 50,000 cells/well and grown overnight in tissue culture medium (DMEM with Glutamax I (Invitrogen), containing 10% dFCS, 50 μg/mL Gentamicin, 400 μg/mL Geneticin) at 37° C. and 7% CO2. Growth medium was replaced by medium without dFCS for overnight incubation. Cells were loaded with a fluorescent calcium-sensitive dye in the presence of 1% probenicid according to the manufacturer's protocol (Fluo4 AM, Molecular Devices). Serial compound dilutions (final concentrations 10^−10 to 10^−5 M) were added to the cells either alone or in the presence of serotonin (10^−9 M) and the maximum calcium response was determined using a FLIPR instrument (Molecular Devices). Concentration-response curves were fitted using a four-parameter logistic equation (GraphPad Prism). The concentration at which the compound exerts half its maximal effect is named the ‘effective concentration 50’ or ‘EC50’ and is listed in Table 2.

In assay [3] the target is T3, 5HT2C receptors. Description: Human 5-HT2C functional high throughput screening assay in CHO-K1 cells (calcium flux). The following applies: for EC50: CHO-K1 cells, calcium flux; for Emax: 5-HT2C, maximum functional response as percentage relative to the effect of serotonin. On the set-up: expressed in transfected cells; host or cells: CHO-K1 cells. The assay is classed as cell-based. An outline of the steps: as §1

The mark [4] stands for this setting: 5-HT2B agonist activity, read-out: EC50.
Where [5] appears, read: 5-HT2B, maximum functional response as percentage relative to the effect of serotonin.
Where [6] appears, read: 5-HT2C agonist activity, read-out: EC50.

In general, Ki refers to a measure of affinity in units of concentration, obtained from inhibition or displacement. What is called EC50 is the midpoint of the concentration-response curve. A word on the Emax: it is the greatest response seen or fitted, relative to the assay's reference.

Like-named read-outs stand apart in the source and are kept apart here. A value given as a limit tells only on which side of the number the result lay.

T2 sequence (P41595 whole entry): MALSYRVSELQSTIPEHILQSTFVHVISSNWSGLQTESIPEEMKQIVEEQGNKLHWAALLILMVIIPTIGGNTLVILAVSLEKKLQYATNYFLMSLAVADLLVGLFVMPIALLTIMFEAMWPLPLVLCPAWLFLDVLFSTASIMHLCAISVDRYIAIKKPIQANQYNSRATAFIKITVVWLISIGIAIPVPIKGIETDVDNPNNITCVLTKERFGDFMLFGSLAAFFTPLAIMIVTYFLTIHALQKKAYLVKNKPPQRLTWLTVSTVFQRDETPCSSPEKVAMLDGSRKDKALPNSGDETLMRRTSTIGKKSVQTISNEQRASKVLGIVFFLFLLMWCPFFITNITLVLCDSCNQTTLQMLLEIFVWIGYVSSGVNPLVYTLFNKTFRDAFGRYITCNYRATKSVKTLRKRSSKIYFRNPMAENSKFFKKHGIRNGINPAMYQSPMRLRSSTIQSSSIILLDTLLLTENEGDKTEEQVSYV

Turning to `O=C1NC[C@@H]2CN(Cc3ccccc3)C[C@@H]2c2cccc(F)c21` (relative stereo) [Example 59, Cis-2-benzyl-7-fluoro-1,2,3,3a,4,5-hexahydrobenzo[c]pyrrolo[3,4-e]azepin-6(10bH)-one], the affinity in assay [1] corresponds to a Ki of 210 nM. In addition, the concentration for a half-maximal effect (EC50) at 5HT2B receptors (setting [4]) is above 10000 nM; on 5HT2C receptors [2], 115 nM; on 5HT2C receptors [3] (setting [6]), 100 nM. In addition, the Emax result is “inactive” on 5HT2B receptors (setting [5]) and 120% at 5HT2C receptors [3] (CHO-K1, read-out: Emax).
Consider `O=C1NC[C@H]2CN(Cc3ccccc3)C[C@@H]2c2ccc(F)cc21` [Example 61, (3aS,10bS)-2-Benzyl-8-fluoro-1,2,3,3a,4,5-hexahydrobenzo[e]pyrrolo[3,4-e]azepin-6(10bH)-one], for which the Ki in assay [1] worked out at 6.4 nM. Besides, the maximum response (Emax) was 10% on 5HT2B receptors (CHO-K1) and above 120% at 5HT2C receptors [3] (CHO-K1). The EC50 was 200 nM on 5HT2B receptors (EC50, 5-HT2B agonist activity); 3.2 nM at 5HT2C receptors [2]; 5.82 nM on 5HT2C receptors [3] (EC50, 5-HT2C agonist activity).
`O=C1NC[C@@H]2CN(Cc3ccccc3)C[C@H]2c2c(F)cccc21` (relative stereo) [Example 65, Trans-2-benzyl-10-fluoro-1,2,3,3a,4,5-hexahydrobenzo[c]pyrrolo[3,4-e]azepin-6(10bH)-one] returned a Ki in assay [1] of 53 nM. Also, the values for the concentration giving a half-maximal response (EC50) on 5HT2B receptors (setting [4]), on 5HT2C receptors [2] and on 5HT2C receptors [3] (setting [6]) were above 10000 nM, 20.2 nM and 20 nM, respectively. Also, the Emax result was “inactive” on 5HT2B receptors (setting [5]) and 120% at 5HT2C receptors [3] (CHO-K1, read-out: Emax).
In assay [1], `O=C1NC[C@@H]2CNC[C@H]2c2ccc(F)cc21` (relative stereo) [Example 57, Trans-8-fluoro-1,2,3,3a,4,5-hexahydrobenzo[c]pyrrolo[3,4-e]azepin-6(10bH)-one] registered a Ki of 26 nM. For the same compound, the maximal response (Emax) was 100% on 5HT2B receptors (CHO-K1) and 120% at 5HT2C receptors [3] (CHO-K1). Moreover, the EC50 was found to be 700 nM on 5HT2B receptors (EC50, 5-HT2B agonist activity); 7.67 nM at 5HT2C receptors [2]; 6 nM at 5HT2C receptors [3] (EC50, 5-HT2C agonist activity).
As to `COC(=O)c1cccc(CN2C[C@H]3CNC(=O)c4ccccc4[C@@H]3C2)c1` (relative stereo) [Example 68, Trans-methyl-3-((6-oxo-1,3a,4,5,6,10b-hexahydrobenzo[e]pyrrolo[3,4-c]azepin-2(3H)-yl)methyl)benzoate], the inhibition constant Ki in assay [1] was 10 nM. The EC50 was above 10000 nM on 5HT2B receptors (setting [4]), 3.97 nM at 5HT2C receptors [2] and 7 nM at 5HT2C receptors [3] (setting [6]). Moreover, the Emax result on 5HT2B receptors (setting [5]) was “inactive”; on 5HT2C receptors [3] (CHO-K1, read-out: Emax), 120%.
For the compound `O=C1NC[C@@H]2CN(Cc3ccccc3)C[C@H]2c2ccc(F)cc21` (relative stereo) [Example 55, Trans-2-benzyl-8-fluoro-1,2,3,3a,4,5-hexahydrobenzo[e]pyrrolo[3,4-c]azepin-6(10bH)-one], the Ki in assay [1] is 9.1 nM. The maximal effect (Emax) entry on 5HT2B receptors (setting [5]) was “inactive”; at 5HT2C receptors [3] (CHO-K1), 120%. In addition, the concentration for a half-maximal effect (EC50) was above 10000 nM at 5HT2B receptors (EC50, 5-HT2B agonist activity); 10.6 nM at 5HT2C receptors [2]; 40 nM at 5HT2C receptors [3] (EC50, 5-HT2C agonist activity).
In assay [1], `CN1C[C@H]2CNC(=O)c3ccccc3[C@@H]2C1` (relative stereo) [Example 69, Trans-2-methyl-1,2,3,3a,4,5-hexahydrobenzo[c]pyrrolo[3,4-e]azepin-6(10bH)-one] displayed a Ki of 48 nM. Also, the maximal response (Emax) on 5HT2B receptors (CHO-K1) came out at 70%; at 5HT2C receptors [3] (CHO-K1) it was 120%. Besides, the concentration giving a half-maximal response (EC50) worked out at 500 nM on 5HT2B receptors (EC50, 5-HT2B agonist activity); 8.78 nM on 5HT2C receptors [2]; 9 nM on 5HT2C receptors [3] (EC50, 5-HT2C agonist activity).
In the case of `COc1cccc(CN2C[C@H]3CNC(=O)c4ccccc4[C@@H]3C2)c1` (relative stereo) [Example 28, Trans-2-(3-methoxybenzyl)-1,2,3,3a,4,5-hexahydrobenzo[c]pyrrolo[3,4-e]azepin-6(10bH)-one], in assay [1], affinity was put at a Ki of 14 nM. Also, the figures for the EC50 on 5HT2B receptors (setting [4]), at 5HT2C receptors [2] and on 5HT2C receptors [3] (setting [6]) were 70 nM, 3.95 nM and 1 nM, respectively. Further, the Emax at 5HT2B receptors (CHO-K1, 5-HT2B, maximum functional response as percentage relative to the effect of serotonin, read-out: Emax) was 55%; on 5HT2C receptors [3] (CHO-K1, read-out: Emax), above 120%.
In assay [1], `COc1ccccc1CN1C[C@H]2CNC(=O)c3ccccc3[C@@H]2C1` (relative stereo) [Example 29, Trans-2-(2-methoxybenzyl)-1,2,3,3a,4,5-hexahydrobenzo[c]pyrrolo[3,4-e]azepin-6(10bH)-one] showed an inhibitory constant (Ki) of 70 nM. Also, the EC50 at 5HT2C receptors [2] came out at 27 nM.
The compound `O=C1NC[C@@H]2CN(Cc3ccccc3)C[C@H]2c2cccc(F)c21` (relative stereo) [Example 58, Trans-2-benzyl-7-fluoro-1,2,3,3a,4,5-hexahydrobenzo[e]pyrrolo[3,4-c]azepin-6(10bH)-one] gave an inhibitory constant (Ki) in assay [1] of 31 nM. Also, the EC50 at 5HT2B receptors (setting [4]) was above 10000 nM; at 5HT2C receptors [2] it was 29 nM; at 5HT2C receptors [3] (setting [6]), 30 nM. Moreover, the Emax entry on 5HT2B receptors (setting [5]) was “inactive”; at 5HT2C receptors [3] (CHO-K1, read-out: Emax), 110%.
In the case of `O=C1NC[C@@H]2CNC[C@H]2c2cc(Cl)ccc21` (relative stereo) [Example 52, Trans-9-chloro-1,2,3,3a,4,5-hexahydrobenzo[e]pyrrolo[3,4-c]azepin-6(10bH)-one], in assay [1], affinity was put at a Ki of 860 nM. On 5HT2C receptors [2], the 50% effective concentration (EC50) was 158 nM.
`O=C1NC[C@@H]2CN(Cc3ccccc3)C[C@H]2c2ccc(Cl)cc21` (relative stereo) [Example 45, Trans-2-benzyl-8-chloro-1,2,3,3a,4,5-hexahydrobenzo[c]pyrrolo[3,4-e]azepin-6(10bH)-one] gave a Ki in assay [1] of 6.9 nM. Also, the 50% effective concentration (EC50) on 5HT2C receptors [2] stood at 5.95 nM.
Compound “(3aR,10bS)-1,2,3,3a,4,5-Hexahydrobenzo[e]pyrrolo[3,4-c]azepin-6(10bH)-one [Example 47]” had a Ki in assay [1] of 6.1 nM. Also, the EC50 at 5HT2B receptors (setting [4]) came out at 20 nM; on 5HT2C receptors [2], 0.575 nM; on 5HT2C receptors [3] (setting [6]), 0.3 nM. Moreover, the Emax is reported as 100% on 5HT2B receptors (setting [5]) and above 120% at 5HT2C receptors [3].
Turning to `Cc1cccc(CN2C[C@H]3CNC(=O)c4ccccc4[C@@H]3C2)c1C` (relative stereo) [Example 27, Trans-2-(2,3-dimethylbenzyl)-1,2,3,3a,4,5-hexahydrobenzo[c]pyrrolo[3,4-e]azepin-6(10bH)-one], in assay [1], affinity was put at a Ki of 210 nM. The EC50 at 5HT2C receptors [2] stood at 266 nM.
Turning to `COc1cc(CN2C[C@H]3CNC(=O)c4ccccc4[C@@H]3C2)cc(OC)c1` (relative stereo) [Example 38, Trans-2-(3,5-dimethoxybenzyl)-1,2,3,3a,4,5-hexahydrobenzo[c]pyrrolo[3,4-e]azepin-6(10bH)-one], the Ki in assay [1] was determined as 8.6 nM. The EC50 at 5HT2C receptors [2] stood at 6.24 nM.
Turning to `O=C1NC[C@@H]2CNC[C@H]2c2cccc(F)c21` (single isomer, unassigned) [Example 60, Trans-7-fluoro-1,2,3,3a,4,5-hexahydrobenzo[c]pyrrolo[3,4-e]azepin-6(10bH)-one], in assay [1], the Ki was 44 nM. For the same compound, the Emax on 5HT2B receptors (CHO-K1) amounted to 80%; on 5HT2C receptors [3] (CHO-K1), 120%. For the same compound, the concentration for a half-maximal effect (EC50) on 5HT2B receptors (EC50, 5-HT2B agonist activity) is 900 nM; on 5HT2C receptors [2], 7.65 nM; at 5HT2C receptors [3] (EC50, 5-HT2C agonist activity), 7 nM.

The values above are taken from patent publication US8846951B2 (AbbVie Inc., priority 2009, dated 2014).
